Measured values: patent publication US20040248919A1, “Fluorinated trienes and their use as rxr modulators” (priority 2001, published 2004)

Experiments:
[1] = system: rodent models of NIDDM; assay: Rodent models of NIDDM; type: in vivo
From the text: Rodents that are genetically defective in the leptin pathway are commonly used as animal models of non-insulin dependant diabetes mellitus (NIDDM). db/db mice and ZDF rats develop frank diabetes that progresses to include β-cell failure and the accompanying precipitous drop in plasma insulin levels. […] All three rodent models were used to examine the efficacy of oral dosing with compounds of the invention on diabetes, insulin sensitivity, food consumption and body weight gain.
Mice (obtained from Jackson Laboratory), ZDF rats (obtained from Genetic Models Inc.) and fa/fa rats (obtained from either Charles River, or Harlan) are maintained on 12-hour light/dark cycle. Mice (age 28-42 days) are caged in groups of 5-6. Rats (age 7 weeks) are housed individually. All animals are allowed ad libitum access to water and food (Purina 5015 for mice and 5008 for rats). Compounds are administered at the specified doses by oral gavage on the morning of each day of any experiment. Blood samples are obtained 3 hours after dosing from fed animals under anesthesia and collected into heparinized capillary tubes from the tail vein.

[2] = system: transgenic mice carrying the human apo A-I gene; assay: Transgenic mice carrying the human apo A-I gene; type: in vivo; conditions: transgenic mouse model
From the text: Mice transgenic for the human apolipoprotein A-I gene (obtained from Jackson Laboratory) are used to evaluate PPARγ mediated effects on high density lipoprotein (HDL) cholesterol. The mice are handled as described above for db/db mice, except that they are fed Purina 5001.

[3] = system: db/db mice; assay: db/db mice, oral dosing; type: in vivo, mouse; conditions: 7 week old db/db mice, 300 mg/kg by daily oral gavage

For `Cc1cc2c(cc1C1(c3ccc(C(=O)O)cn3)CC1)C(C)(C)CCC2(C)C` [LG100268, 6-[1-(3,5,5,8,8-pentamethyl-5,6,7,8-tetrahydronaphthalen-2-yl)cyclopropyl]nicotinic acid], the Blood glucose levels [1] was “lower blood glucose levels”, the Thyroid hormone axis [1] was “suppress the thyroid hormone axis” and the Triglycerides [1] was “raise triglycerides”. For the same molecule, the Triglycerides [2] was “raises triglycerides”.

For `CN(C)C(=N)N=C(N)N` [metformin], the Plasma glucose [3] was “lowers plasma glucose”.
